Measurements: patent US20090076012A1, “Modulation of pathogenicity” (priority 2002, published 2009)

The molecules below were run on bioluminescent sensor strain Escherichia coli MT102 (pSB403) (assay: Biosensor assay: quorum sensing inhibition, bioluminescence of the sensor strain). Conditions: Escherichia coli, 4 h, 3oxo-C6-HSL 100 nM; bioluminescence after 4 hours at 30° C.
Type: cell-based
Experimental: Quorum sensing inhibition of the compounds was investigated with the aid of the bioluminescent sensor strain Escherichia coli MT102 (pSB403) (Winson et al., FEMS Microbiol. Lett. 163:185-92, 1998). Plasmid pSB403 contains the Photobacterium fischeri luxR gene together with the […] promoter region as a transcriptional fusion to the bioluminescence genes luxCDABE of Photorhabdus luminescence.
Inhibitory studies were conducted in a microtitre dish assay as follows: the E. coli sensor strain grown over night in LB medium (Sambrook et al., Molecular Cloning: A Laboratory Manual. 2nd Edn. Cold Spring Harbor Laboratory, New York, 1989) was diluted 1:4 and grown for another 1 hour at 30° C. After addition of 3oxo-C6-HSL (final concentration 100 nM) 100 μl of an exponential culture suspension were filled in the wells of a FluoroNunc Polysorp microtitre dish. The test compounds were added to the culture in different concentrations and bioluminescence was measured after 4 hours of incubation at 30° C. with a Lamda Fluoro 320 Plus reader (Bio-Tek Instruments). Inhibitor-mediated reduction of light emission was correlated with the value obtained without addition of the test compounds. IC50 values (concentration of inhibitor required for 50% inhibition of the signal compared to the signal without inhibitor) were determined by using a fitting function after drawing a graph of the activities of eight different inhibitor concentrations.

SMILES	IC50
O=C(NNC(=O)c1ccc(Br)s1)Nc1ccccc1CCl [Compound 107, 1-(5-Bromo-thiophene-2-carbonyl)-4-(2-chloromethyl-phenyl)-semicarbazide]	1 to 50 µM
CCCCCCC(=O)CC(=O)Nc1ccn[nH]1 [Compound 113, 3-Oxo-nonanoic acid (2H-pyrazol-3-yl)-amide]	> 100 µM
Cc1ccc(C(=O)NNC(=O)c2cccs2)s1 [Compound 54, Thiophene-2-carboxylic acid N′-(5-methyl-thiophene-2-carbonyl)-hydrazide]	1 to 50 µM
COc1ccc(NC(=O)c2sccc2Br)cn1 [Compound 2, 3-Bromo-thiophene-2-carboxylic acid (6-methoxy-pyridin-3-yl)-amide]	1 to 50 µM
CCCCCCC(=O)CC(=O)Nc1oc(C)nc1C#N [Compound 135, 3-Oxo-nonanoic acid (4cyano-2-methyl-oxazol-5-yl)-amide]	50 to 100 µM
CCCCCCC(=O)Nc1cc(-c2cccs2)nn1C [Compound 19, Heptanoic acid (2-methyl-5-thiophen-2-yl-2H-pyrazol-3-yl)-amide]	1 to 50 µM
O=C(NNC(=O)c1cccs1)c1ccco1 [Compound 35, Furan-2-carboxylic acid N′-(thiophene-2-carbonyl)-hydrazide]	50 to 100 µM
O=C(NNC(=O)c1ccc(Cl)s1)Nc1ccccc1CCl [Compound 108, 4(2-Chloro-methyl-phenyl)-1-(5-chloro-thiophene-2-carbonyl)-semicarbazide]	1 to 50 µM
O=C(NNC(=O)c1sc2ccccc2c1Cl)c1cccs1 [Compound 60, 3-Chloro-benzo[b]thiophene-2-carboxylic acid N′-(thiophene-2-carbonyl)-hydrazide]	1 to 50 µM
O=C(NNC(=O)c1cnn(-c2ccc(Cl)cc2)c1C(F)(F)F)c1cccs1 [Compound 34, Thio-phene-2-carboxylic acid N′-[1-(4-chloro-phenyl)-5-trifluoromethyl-1H-pyrazole-4-carbonyl]-hydrazide]	50 to 100 µM
CCCCCCC(=O)CC(=O)Nc1ccc(C(=O)OC)o1 [Compound 138, 5-(3-Oxo-nonanoylamino)-furan-2-carboxylic acid methyl ester]	> 100 µM
Cc1csc(C(=O)NNC(=O)c2ccc(C(F)(F)F)cc2)c1 [Compound 28, 4-Trifluoromethyl-benzoic acid N′-(4-methyl-thiophene-2-carbonyl)-hydrazide]	50 to 100 µM
CCCCCCC(=O)CC(=O)Nc1nc(SC)sc1C(C)=O [Compound 129, 3-Oxo-nonanoic acid (5-acetyl-2-methylsulfanyl-thiazol-4-yl)-amide]	> 100 µM
O=C(NNC(=O)c1cccs1)c1cccc(Cl)c1 [Compound 31, 3-Chloro-benzoic acid N′-(thiophene-2-carbonyl)-hydrazide]	50 to 100 µM
CCCCCCCCCC(=O)CC(=O)Nc1ccnn1C [Compound 115, 3-Oxo-dodecanoic acid (2-methyl-2H-pyrazol-3-yl)-amide]	> 100 µM
COc1c(C(=O)NNC(=O)c2cccs2)csc1Cl [Compound 50, 5-Chloro-4-methoxy-thiophene-3-carboxylic acid N′-(thiophene-2-carbonyl)-hydrazide]	50 to 100 µM
O=C(NNC(=O)c1sccc1Br)c1ccc(Cl)s1 [Compound 48]	50 to 100 µM
O=C(NNC(=O)c1ccc(Cl)s1)c1cccs1 [Compound 52, Thiophene-2-carboxylic acid N′-(5-chloro-thiophene-2-carbonyl)-hydrazide]	50 to 100 µM
CCOC(=O)CC(=O)NNC(=O)c1cc2ccccc2s1 [Compound 96, 3-[N′-(Benzo[b]thiophene-2-carbonyl)-hydrazino]-3-oxo-propionic acid ethyl ester]	50 to 100 µM
Cn1nc(-c2ccccc2)cc1NC(=O)CCCCCBr [Compound 18, 6-Bromo-hexanoic acid (2-methyl-5-phenyl-2H-pyrazol-3-yl)-amide]	1 to 50 µM
CCCCCCCCCC(=O)CC(=O)Nc1ccnn1CC [Compound 117, 3-Oxo-dodecanoic acid (2-ethyl-2H-pyrazol-3-yl)-amide]	> 100 µM
CCCC(=O)NNC(=O)c1ccc(Br)s1 [Compound 77, 5-Bromo-thiophene-2-carboxylic acid N′-butyryl-hydrazide]	1 to 50 µM
COc1c(C(=O)NNC(=O)c2ccc(C)s2)csc1Br [Compound 53, 5-Bromo-4-methoxy-thiophene-3-carboxylic acid N′-(5-methyl-thiophene-2-carbonyl)-hydrazide]	1 to 50 µM

SMILES	IC50
COC(=O)c1ccsc1NC(=O)c1cnc(Cl)nc1C(F)(F)F [Compound 4, 2-[(2-Chloro-4-trifluoro-methyl-pyrimidine-5-carbonyl)-amino]-thiophene-3-carboxylic acid methyl ester]	> 100 µM
CCCCCCCCCC(=O)CC(=O)Nc1oc(C)c(C)c1C#N [Compound 137, 3-Oxododecanoic acid (3-cyano-4,5-dimethyl-furan-2-yl)-amide]	> 100 µM
CCOc1ccsc1C(=O)NNC(=O)c1cccs1 [Compound 45, Thiophene-2-carboxylic acid N′-(3-ethoxy-thiophene-2-carbonyl)-hydrazide]	1 to 50 µM
O=C(NNC(=O)c1sc2ccccc2c1Cl)Nc1cc(Cl)nc(Cl)c1 [Compound 111, 1-(3-Chloro-benzo[b]thiophen-2-carbonyl)-4-(2,6-dichloro-pyridinyl)-semicarbazide]	> 100 µM
CCCCCCC(=O)CC(=O)Nc1scc(C)c1C(=O)OCC [Compound 123, 4-Methyl-2-(3-oxo-nonanoylamino)-thiophene-3-carboxylic acid ethyl ester]	> 100 µM
Cc1ccc(C(=O)NNC(=O)CCCCCBr)s1 [Compound 82, 5-Methyl-thiophene-2-carboxylic acid N′-(6-bromohexanoyl)-hydrazide]	1 to 50 µM
CCn1nc(C)c(Br)c1C(=O)NNC(=O)c1cc(Br)c(Br)s1 [Compound 74, 4-Bromo-2-ethyl-5-methyl-2H-pyrazole-3-carboxylic acid N′-(4,5-di-bromo-thiophene-2-carbonyl)-hydrazide]	> 100 µM
O=C(NNC(=O)c1sc2ccccc2c1Cl)c1ccc(Br)s1 [Compound 62, 3-Chloro-benzo[b]thiophene-2-carboxylic acid N′-(5-bromo-thiophene-2-carbonyl)-hydrazide]	50 to 100 µM
CCCCCCC(=O)CC(=O)Nc1nccs1 [Compound 127, 3-Oxo-nonanoic acid thiazol-2-ylamide]	> 100 µM
O=C(NNC(=O)c1sccc1Br)c1ccco1 [Compound 39, Furan-2-carboxylic acid N′-(3-bromo-thiophene-2-carbonyl)-hydrazide]	1 to 50 µM
O=C(Nc1cccnc1)c1cc(Cl)sc1Cl [Compound 3, 2,5-Dichloro-thio-phene-3-carboxylic acid pyridin-3-ylamide]	1 to 50 µM
Cc1csc(C(=O)NNC(=O)CCCCCBr)c1Cl [Compound 80, 3-Chloro-4-methyl-thiophene-2-carboxylic acid N′-(6-bromo-hexanoyl)-hydrazide]	1 to 50 µM
CCOc1ccsc1C(=O)NNC(=O)c1ccco1 [Compound 37, Furan-2-carboxylic acid N′-(3-ethoxy-thiophene-2-carbonyl)-hydrazide]	50 to 100 µM
CCCCCCCCCC(=O)CC(=O)Nc1scc(C)c1C(=O)OCC [Compound 124, 4-Methyl-2-(3-oxo-dodecanoylamino)-thiophene-3-carboxylic acid ethyl ester]	> 100 µM
CCCCCCC(=O)NNC(=O)c1scc(C)c1Cl [Compound 81, 3-Chloro-4-methyl-thiophene-Z-carboxylic acid N′-heptanoyl-hydrazide]	1 to 50 µM
Cn1nccc1NC(=O)CCCCCBr [Compound 22, 6-Bromo-hexanoic acid (2-methyl-2H-pyrazole-3-yl)-amide]	1 to 50 µM
Cc1cc(C(=O)Nc2cccnc2)cc(Cl)n1 [Compound 11, 2-Chloro-6-methyl-N-pyridin-3-yl-iso-nicotinamide]	1 to 50 µM
CCCCCCC(=O)CC(=O)Nc1cc(C)nn1C [Compound 118, 3-Oxo-nonanoic acid (2,5-dimethyl-2H-pyrazol-3-yl)-amide]	> 100 µM
CCCCCCC(=O)Nc1ccnn1C [Compound 24, Heptanoic acid (2-methyl-2H-pyrazol-3-yl)-amide]	1 to 50 µM
CSc1ccc(NC(=O)NNC(=O)c2scc(C)c2Cl)cc1 [Compound 105, 1-(3-Chloro-4-methyl-thiophene-2-carbonyl)-4-(4-methylsulfanyl-phenyl)-semicarbazide]	1 to 50 µM
Cc1cc(C(=O)Nc2ccnn2C)n(C(C)(C)C)n1 [Compound 13, 2-tert-Butyl-5-methyl-2H-pyrazole-3-carboxylic acid (2-methyl-2H-pyrazol-3-yl)-amide]	> 100 µM
Cc1csc(C(=O)NNC(=O)c2ccco2)c1Cl [Compound 36, Furan-2-carboxylic acid N′-(3-chloro-4-methyl-thiophene-2-carbonyl)-hydrazide]	50 to 100 µM
O=C(NNC(=O)c1sccc1Cl)c1cccs1 [Compound 51, 3-Chloro-thiophene-2-carboxylic acid N′-(thiophene-2-carbonyl)-hydrazide]	50 to 100 µM
